Measured values as given in patent US9062284B2, “Uses and detection of herbicide resistance genes for resistance to aryloxyalkanoate herbicides” (Dow ArgoSciences LLC, priority 2007, dated 2015).

Assays:
[1] = tested on: AAD-13 (v1) gene T0 tobacco plants; experiment: 2,4-D DMA response of AAD-13 (v1) T0 tobacco; type: in vivo, Nicotiana tabacum; conditions: for % Injury 20-40% (individuals) / % Injury <20% (individuals) / % Injury >40% (individuals) / % Injury Ave: 14 days after application
Excerpt: (§1) Following the acclimation in the greenhouse T0 plants were then randomly assigned to various rates of 2,4-D DMA ranging from 140 to 2240 g ae/ha at […] increments. For tobacco, 140 g ae/ha 2,4-D is an effective dose to distinguish sensitive plants from ones with meaningful levels of resistance.

[2] = tested on: PAT/Cry1F-transformed tobacco; experiment: 2,4-D DMA response of PAT/Cry1F transformed control T0 tobacco; type: in vivo, Nicotiana tabacum; conditions: 14 days after application
Excerpt: as §1

[3] = tested on: AAD-13 (v1) transformed T1 Arabidopsis; experiment: Postemergence herbicide response of AAD-13 (v1) T1 Arabidopsis; type: in vivo, Arabidopsis thaliana; conditions: 14 DAT
Protocol: Seven days after planting (DAP) and again 11 DAP, T1 plants (cotyledon and 2-4-lf stage, respectively) were sprayed with a 0.2% solution of Liberty herbicide (200 g ai/L glufosinate, Bayer Crop Sciences, Kansas City, Mo.) at a spray volume of 10 ml/tray (703 L/ha) using a DeVilbiss compressed air spray tip to deliver an effective rate of 280 g ai/ha glufosinate per application. Survivors (plants actively growing) were identified 4-7 days after the final spraying and transplanted individually into 3-inch pots prepared with potting media (Metro Mix 360). Transplanted plants were covered with humidity domes for 3-4 days and placed in a 22° C. growth chamber as before or moved to directly to the greenhouse. Domes were subsequently removed and plants reared in the greenhouse (22±5° C., 50±30% RH, 14 h light:10 dark, minimum 500 μE/m^2s^1 natural+supplemental light) at least 1 day prior to testing for the ability of AAD-13 (v1) to provide phenoxy auxin herbicide resistance.
T1 plants were then randomly assigned to various rates of 2,4-D. For Arabidopsis, 50 g ae/ha 2,4-D is an effective dose to distinguish sensitive plants from ones with meaningful levels of resistance. Elevated rates were also applied to determine relative levels of resistance (280, 560, 1120, or 2240 g ae/ha). Tables 11 and 12 show comparisons drawn to an aryloxyalkanoate herbicide resistance gene (AAD-12 (v1)) previously described in PCT/US2006/042133.
(§2) All auxin herbicide applications were made using the DeVilbiss sprayer as described above to apply 703 L/ha spray volume (0.4 ml solution/3-inch pot) or applied by track sprayer in a 187 L/ha spray volume. 2,4-D used was either technical grade (Sigma, St. Louis, Mo.) dissolved in DMSO and diluted in water (<1% DMSO final concentration) or the commercial dimethylamine salt formulation (456 g ae/L, NuFarm, St Joseph, Mo.). Dichlorprop used was commercial grade formulated as potassium salt of R-dichlorprop (600 g ai/L, AH Marks). As herbicide rates increased beyond 800 g ae/ha, the pH of the spray solution became exceedingly acidic, burning the leaves of young, tender Arabidopsis plants and complicating evaluation of the primary effects of the herbicides.
The first Arabidopsis transformations were conducted using AAD-13 (v1) (plant optimized gene). T1 transformants were first selected from the background of untransformed seed using a glufosinate selection scheme. Over 160,000 T1 seed were screened and 238 glufosinate resistant plants were identified (PAT gene), equating to a transformation/selection frequency of 0.15% which lies in the normal range of selection frequency of constructs where PAT+Liberty are used for selection. T1 plants selected above were subsequently transplanted to individual pots and sprayed with various rates of commercial aryloxyalkanoate herbicides. Table 11 compares the response of AAD-13 (v1) and control genes to impart 2,4-D resistance to Arabidopsis T1 transformants. Response is presented in terms of % visual injury 2 WAT. […] An arithmetic mean and standard deviation is presented for each treatment. The range in individual response is also indicated in the last column for each rate and transformation. PAT/Cry1F-transformed Arabidopsis served as an auxin-sensitive transformed control. The AAD-13 (v1) gene imparted herbicide resistance to individual T1 Arabidopsis plants. Within a given treatment, the level of plant response varied greatly and can be attributed to the fact each plant represents an independent transformation event. Of important note, at each 2,4-D rate tested, there were individuals that were unaffected while some were severely affected. […] At high rates the spray solution becomes highly acidic unless buffered therefore some of the injury may be attributed to the acidity of the spray solution. Arabidopsis grown mostly in the growth chamber has a very thin cuticle and severe burning effects can complicate testing at these elevated rates. […]

[4] = tested on: Wildtype (untransformed control) Arabidopsis; experiment: R-dichlorprop response of wildtype Arabidopsis; type: in vivo, Arabidopsis thaliana; conditions: 800 g ae/ha postemergence, 14 DAT
Protocol: as §2
The fact that AAD-1 (v3) will metabolize R-dichlorprop well enough to impart commercially acceptable tolerance is one distinguishing characteristic that separates the three genes (Table 12 and Example 7 of PCT/US2006/042133 (Wright et al., filed Oct. 27, 2006). AAD-1 and AAD-13 are considered R- and S-specific α-ketoglutarate dioxygenases, respectively.

With CNC.O=C(O)COc1ccc(Cl)cc1Cl [2,4-D DMA] the “% Injury 20-40% (individuals)” value ([1]; 140 g ae/ha) was 0, the “% Injury <20% (individuals)” value ([1]; 140 g ae/ha) was 2 and the “% Injury >40% (individuals)” value ([1]; 140 g ae/ha) was 0. For the same molecule, the “% Injury Ave” value ([1]; 140 g ae/ha) was 8.0%, the “% Injury 20-40% (individuals)” value ([1]; 560 g ae/ha) was 0 and the “% Injury <20% (individuals)” value ([1]; 560 g ae/ha) was 2. For the same molecule, the “% Injury >40% (individuals)” value ([1]; 560 g ae/ha) was 0, the “% Injury Ave” value ([1]; 560 g ae/ha) was 3.0% and the “% Injury 20-40% (individuals)” value ([1]; 2240 g ae/ha) was 0. For the same molecule, the “% Injury <20% (individuals)” value ([1]; 2240 g ae/ha) was 2, the “% Injury >40% (individuals)” value ([1]; 2240 g ae/ha) was 0 and the “% Injury Ave” value ([1]; 2240 g ae/ha) was 5.0%. For the same molecule, the “rate to which robust tolerance is provided” value ([1]; T0 tobacco) was “at least 2240 g ae/ha”, the “% Injury 20-40% (individuals)” value ([2]; 140 g ae/ha) was 1 and the “% Injury <20% (individuals)” value ([2]; 140 g ae/ha) was 0. For the same molecule, the “% Injury >40% (individuals)” value ([2]; 140 g ae/ha) was 2, the “% Injury Ave” value ([2]; 140 g ae/ha) was 47.0% and the “% Injury 20-40% (individuals)” value ([2]; 560 g ae/ha) was 0. The “% Injury <20% (individuals)” value ([2]; 560 g ae/ha) was 0, the “% Injury >40% (individuals)” value ([2]; 560 g ae/ha) was 3 and the “% Injury Ave” value ([2]; 560 g ae/ha) was 75.0%. For the same molecule, the “% Injury 20-40% (individuals)” value ([2]; 2240 g ae/ha) was 0, the “% Injury <20% (individuals)” value ([2]; 2240 g ae/ha) was 0 and the “% Injury >40% (individuals)” value ([2]; 2240 g ae/ha) was 3. The “% Injury Ave” value ([2]; 2240 g ae/ha) was 97.0%, the “% Injury 20-40% (individuals)” value ([3]; 280 g ae/ha postemergence) was 4 and the “% Injury <20% (individuals)” value ([3]; 280 g ae/ha postemergence) was 12. For the same molecule, the “% Injury >40% (individuals)” value ([3]; 280 g ae/ha postemergence) was 4, the “% Injury Ave” value ([3]; 280 g ae/ha postemergence) was 21% and the “% Injury 20-40% (individuals)” value ([3]; 560 g ae/ha postemergence) was 2. For the same molecule, the “% Injury <20% (individuals)” value ([3]; 560 g ae/ha postemergence) was 17, the “% Injury >40% (individuals)” value ([3]; 560 g ae/ha postemergence) was 0 and the “% Injury Ave” value ([3]; 560 g ae/ha postemergence) was 2%. For the same molecule, the “% Injury 20-40% (individuals)” value ([3]; 1120 g ae/ha postemergence) was 0, the “% Injury <20% (individuals)” value ([3]; 1120 g ae/ha postemergence) was 20 and the “% Injury >40% (individuals)” value ([3]; 1120 g ae/ha postemergence) was 0. The “% Injury Ave” value ([3]; 1120 g ae/ha postemergence) was 2%, the “% Injury 20-40% (individuals)” value ([3]; 2240 g ae/ha postemergence) was 3 and the “% Injury <20% (individuals)” value ([3]; 2240 g ae/ha postemergence) was 14. For the same molecule, the “% Injury >40% (individuals)” value ([3]; 2240 g ae/ha postemergence) was 3 and the “% Injury Ave” value ([3]; 2240 g ae/ha postemergence) was 15%.

C[C@@H](Oc1ccc(Cl)cc1Cl)C(=O)O [R-dichloroprop, R-dichlorprop] was tested, and the “% Injury 20-40% (individuals)” value [4] was 0, the “% Injury <20% (individuals)” value [4] was 0 and the “% Injury >40% (individuals)” value [4] was 20. For the same molecule, the “% Injury Ave” value [4] was 100%, the “% Injury 20-40% (individuals)” value ([3]; 800 g ae/ha postemergence) was 0 and the “% Injury <20% (individuals)” value ([3]; 800 g ae/ha postemergence) was 0. The “% Injury >40% (individuals)” value ([3]; 800 g ae/ha postemergence) was 20 and the “% Injury Ave” value ([3]; 800 g ae/ha postemergence) was 100%.
